This note sets out measurements from US7795495B2, “Transgenic mice for screening for inhibitors of protein aggregation and methods for making and using them” (The Regents of the University of California, priority 2000, dated 2010).

Series [1] in a line: Aggregation of synuclein proteins under high temperature conditions (SDS-PAGE/Coomassie brilliant blue). It is filed as physicochemical. The settings on record: 20 µM protein, pH 6.9, 65 °C, 0, 8 and 20 hours. On the procedure: Each of the protein samples (20 µM) was incubated under pH 6.9, 65° C. conditions for 0, 8, and 20 hours. The incubated samples were run over SDS-PAGE and the resulting protein bands visualized by Coomassie/brilliant blue staining (FIG. 2).

Series [2] deals with SDS-resistant complexes of α-synuclein and Aβ1-40 (Homo sapiens, UniProt P37840). The series can be described thus: Formation of SDS-resistant complexes of α-synuclein and Aβ1-40, immunoblotting analysis. It is filed as biochemical. The settings on record: 10 µM α-synuclein, 10 µM Aβ1-40, 100 µM peptide. The source says: Those in the art generally agree that β-Synuclein blocks Aβ proto-fibril formation by one of two possible mechanistic pathways. In the first pathway, inhibition is facilitated through indirectly blocking NAC or α-synuclein interaction with Aβ. In the second possible pathway, inhibition is facilitated by the direct blocking Aβ aggregation.

Series [3] relates to B103 neuroblastoma cells. The experiment in a line: Aβ cytotoxicity in B103 neuroblastoma cells. The class given is cell-based. The settings on record: for effect on Aβ cytotoxicity / cell survival: Aβ 20 µM, serum-free, three days, protein 20 µM. On the procedure:
When B103 neuroblastoma cells were incubated with Aβ (20 µM) under serum-free conditions for three days, dead cells become prominent due to the cytotoxic effects of Aβ.

The test system of series [4] is α-synuclein tg mice. The experiment in a line: Bigenic crosses: β-synuclein overexpression in α-synuclein tg mice (rotorod, neuropathological analysis). It is filed as in vivo. An excerpt: Motor deficits in Lewy body disease are associated with degeneration of the nigral dopaminergic neurons projecting to the striatum. To determine if loss of dopaminergic input to the striatum in transgenic mice is associated with Parkinson's disease related neurological impairments, mice were examined with a rotorod test, a behavioral testing mechanism well known to those familiar with such procedures. […] The dopaminergic and behavioral deficits were detected only in the high expression line and not in low-expression lines. […] This may lead to the conclusion that a critical threshold of α-synuclein accumulation is required for dopaminergic and behavioral deficits to become detectable. None-the-less, the evaluation of such neurophysiological characteristics, as previously described, are well known to those of skill in such evaluations. As such, it is apparent that the increased expression of wild-type α-synuclein plays a key role in the pathogenesis of neurodegenerative conditions associated with amyloidogenesis.

The subject of series [5] is B103 cells. The series can be described thus: B103 cells overexpressing synuclein: cell adhesion and neurite extension. The class given is cell-based. The settings on record: catalase 100 µg/ml, superoxide dismutase 100 U/ml, vitamin E 500 µM.
Series [6] concerns GT1-7 murine hypothalamic neuronal cells. The series can be described thus: GT1-7 cells overexpressing α-synuclein: mitochondrial alterations and oxidative stress. It is filed as cell-based. As to the method:
To determine if the overexpression of α-synuclein causes dysregulated neuronal function, GT1-7 cells were transfected with the mammalian expression vector pCR3.1 (Invitrogen) using standard transfection protocols well known in the art. The cells were transfected with or without insertion of murine α-synuclein cDNA. The resulting expression of α-synuclein was measured at both mRNA and protein levels using RPA and immunoblotting analysis. Clones which either overexpressed or underexpressed α-synuclein (via transfection with an anti-sense plasmid) were selected and analyzed. […] These alterations were ameliorated by pretreatment with the anti-oxidant, vitamin E. Furthermore, α-synuclein overexpression in GT1-7 cells results in the formation of α-synuclein—immunopositive inclusion-like structures.

In the case of “β-synuclein .delta.1: β-synuclein mutant with amino acids 72-83 of NAC inserted by site-directed mutagenesis”, in series [1], the “formation of aggregates / amyloid-like fibrils under high temperature conditions” value is reported as “aggregated to form amyloid-like fibrils”.

On to “51-60 (Seq ID #11): synthetic peptide, amino acids 51-61 of β-synuclein: Gly Val Ala Ser Val Ala Glu Lys Thr Lys Glu (GVASVAEKTKE; listed as Homo sapiens)”, for which the results for the “suppression of the formation of SDS-resistant complexes of α-synuclein and Aβ1-40” value in series [2] and in series [2] (listed as a.a. 51-61 of β-synuclein) were “significant suppression” and “suppression”, respectively.

For β-synuclein, in series [1], the “formation of aggregates / amyloid-like fibrils under high temperature conditions” value is “fails to show any formation of aggregates”. Besides, in series [3], the “effect on Aβ cytotoxicity / cell survival” value was “blocked the effects of this cytotoxicity” and the “effect on Aβ toxicity in neuroblastoma cell (summary statement)” value is reported as “protective”. Besides, in series [4] (β-synuclein overexpression in α-synuclein tg mice (bigenic crosses), FIG. 14), the “motor deficits, rotorod performance” value was “reduced the motor deficits”. The neuronal loss entry in series [4] (β-synuclein overexpression in α-synuclein tg mice, FIG. 16) is “reduction neuronal loss”. Besides, the neuronal inclusions entry in series [4] (β-synuclein overexpression in α-synuclein tg mice, neuropathological analysis, FIG. 15) is on record as “reduction of neuronal inclusions”.

“β-synuclein .delta.2: β-synuclein mutant with amino acids 63-72 of NAC N-terminal inserted by site-directed mutagenesis”: in series [1], the “formation of aggregates / amyloid-like fibrils under high temperature conditions” value is listed as “aggregated to form amyloid-like fibrils”.

On to catalase, for which the “effect of anti-oxidants on altered adhesion and neurite outgrowth of synuclein overexpressing cells” value (“effect of anti-oxidants” below) in series [5] is “little effect”.

superoxide dismutase: in series [5], the “effect of anti-oxidants” value was “little effect”.

In the case of α-synuclein [reference compound], in series [1], the “formation of aggregates / amyloid-like fibrils under high temperature conditions” value is recorded as “positive aggregation”. In series [3], the “effect on Aβ cytotoxicity / cell survival” value is listed as “detrimental to cell survival” and the “effect on Aβ toxicity in neuroblastoma cell (summary statement)” value is given as “enhances Aβ toxicity”.

For vitamin E, the “effect of pretreatment on alterations caused by α-synuclein overexpression (mitochondrial alterations, free radicals, glutathione, gonadotropin-releasing hormone secretion)” value in series [6] was “ameliorated”. The “effect of anti-oxidants” value in series [5] is reported as “little effect”.
